Laboratory results as given in US20020115853A1, “Benzimidazolones and analogues” (priority 1999, published 2002).
pEC50: −log10 of the molar value. Values joined by “and” are separate entries in the source; they are usually repeats but may differ in a detail not shown here. Equal entries are not always repeated.

Tested on: T47D cells
Experiment: T47D cell proliferation assay (BrdU incorporation)
Format: cell-based
Conditions: Homo sapiens, agonist mode, reference progestins, read-out: Estimated EC50, BrdU incorporation, individual studies
Experimental: 1. T47D cell Proliferation Assay
The objective of this assay is the determination of progestational and antiprogestational potency by using a cell proliferation assay in T47D cells. A compound's effect on DNA synthesis in T47D cells is measured.
DMEM:F12 (1:1) (GIBCO, BRL) supplemented with 10% (v/v) fetal bovine serum (not heat-inactivated), 100 U/ml penicillin, […], and 2 mM GlutaMax (GIBCO, BRL). b. Treatment medium: Minimum Essential
Medium (MEM) (#51200-038GIBCO, BRL) phenol red-free supplemented with 0.5% charcoal stripped fetal bovine serum, 100 U/ml penicillin, […] streptomycin, and 2 mM GlutaMax (GIBCO, BRL).
Stock T47 D cells are maintained in growth medium. For BrdU incorporation assay, cells are plated in 96-well plates (Falcon, Becton Dickinson Labware) at 10,000 cells/well in growth medium. […]
At the end of BrdU labeling, the medium is removed and BrdU incorporation is measured using a cell proliferation ELISA kit (#RPN 250, Amersham Life Science) according to manufacturer's instructions. […] Then 25 μl of 1 M sulfuric acid is added to each well to stop color reaction and optical density is read in a plate reader at 450 nm within 5 min.
Square root-transformed data are used for analysis of variance and nonlinear dose response curve fitting for both agonist and antagonist modes. […] EC50 or IC50 values are calculated from the retransformed values. […]

For `CC(=O)O[C@]1(C(C)=O)CC[C@H]2[C@@H]3C[C@H](C)C4=CC(=O)CC[C@]4(C)[C@H]3CC[C@@]21C` [MPA, medroxyprogesterone acetate], the pEC50 was 10.72.

Tested on: not given
Experiment: not given
Conditions: not given

Compared with `O=c1[nH]c2ccc(-c3cccc(Cl)c3)cc2n1Cc1ccccc1` [Compound 1, 1-Benzyl-6-(3-chloro-phenyl)-1,3-dihydro-benzoimidazol-2-one], `S=c1[nH]c2ccc(-c3cccc(Cl)c3)cc2n1Cc1ccccc1` [Example 24, 1-Benzyl-6-(3-chlorophenyl)-1,3-dihydro-2H-benzimidazole-2-thione] is higher in melting point: 168 to 169 °C for the first, 211 to 212 °C for the second.

First: O=c1[nH]c2ccc(-c3cccc([N+](=O)[O-])c3)cc2n1Cc1ccccc1 [Compound 2, 1-Benzyl-6-(3-nitro-phenyl)-1,3-dihydro-benzoimidazol-2-one]
Second: O=[N+]([O-])c1cccc(-c2ccc3[nH]c(=S)n(Cc4ccccc4)c3c2)c1 [Example 25, 1-Benzyl-6-(3-nitrophenyl)-1,3-dihydro-2H-benzimidazole-2-thione]
The melting point of the first is lower: 202 to 203 °C for the first, 244 to 245 °C for the second.

First: Cn1c(=O)[nH]c2ccc(-c3cccc(Cl)c3)cc21 [Compound 3, 6-(3-chloro-phenyl)-1-methyl-1,3-dihydro-benzoimidazol-2-one]
Second: Cn1c(=O)[nH]c2ccc(-c3cccc([N+](=O)[O-])c3)cc21 [Compound 4, 1-Methyl-6-(3-nitro-phenyl)-1,3-dihydro-benzoimidazol-2-one]
The melting point of the first is lower: 219 to 220 °C for the first, 264 to 265 °C for the second.

First: O=C1CSc2cc(-c3cccc([N+](=O)[O-])c3)ccc2N1 [Compound B1, 7-(3-Nitro-phenyl)-4H-benzo[1,4]thiazin-3-one]
Second: CN1CC(=O)Nc2ccc(-c3cccc([N+](=O)[O-])c3)cc21 [Example 26, 6-(3-Nitro-phenyl)-4-methyl-3,4-dihydro-1H-quinoxalin-2-one]
The melting point of the first is higher: 290 to 292 °C for the first, 237 to 243 °C for the second.

First: CCC1Sc2cc(-c3cccc([N+](=O)[O-])c3)ccc2NC1=O (stereo not drawn) [Compound B2, 2-Ethyl-7-(3-nitro-phenyl)-4H-benzo[1,4]thiazin-3-one]
Second: O=c1[nH]c2ccc(-c3cccc([N+](=O)[O-])c3)cc2s1 [Example 12, 6-(3-Nitro-phenyl)-3H-benzothiazol-2-one]
The melting point of the first is lower: 180 °C for the first, 276 to 277 °C for the second.

Compared with `CC(C)N1CC(=O)Nc2ccc(-c3cccc(Cl)c3)cc21` [Compound C4, 6-(3-Chloro-phenyl)-4-isopropyl-3,4-dihydro-1H-quinoxalin-2-one], `CC(C)N1CC(=O)Nc2ccc(-c3ccc(F)c(Cl)c3)cc21` [Compound C5, 6-(3-Chloro-4-fluoro-phenyl)-4-isopropyl-3,4-dihydro-1H-quinoxalin-2-one] is higher in melting point: 146 to 150 °C for the first, 208 to 213 °C for the second.

First: O=c1[nH]c2ccc(-c3cccc([N+](=O)[O-])c3)cc2[nH]1 [Example 9, 5-(3-Nitro-phenyl)-1,3-dihydro-benzoimidazol-2-one]
Second: O=c1[nH]c2ccc(-c3cccc([N+](=O)[O-])c3)cc2o1 [Example 11, 6-(3-Nitro-phenyl)-3H-benzooxazol-2-one]
The melting point of the first is higher: 324 to 325 °C for the first, 280 to 281 °C for the second.

First: O=c1[nH]c2ccc(-c3cccc(Cl)c3)cc2s1 [Example 13, 6-(3-Chloro-phenyl)-3H-benzothiazol-2-one]
Second: CC(C)OC(=O)N1CC(=S)Nc2ccc(-c3cccc(Cl)c3)cc21 [Example 30, Isopropyl 7-(3-chlorophenyl)-3-thioxo-3,4-dihydroquinoxaline-1(2H)-carboxylate]
The melting point of the first is lower: 195 to 196 °C for the first, 208 to 212 °C for the second.

First: CC(C)N1CC(=O)Nc2ccc(-c3cc(F)cc(C#N)c3)cc21 [Example 20, 6-(3-Cyano-5-fluorophenyl)-4-isopropyl-3,4-dihydro-1H-quinoxalin-2-one]
Second: O=C1CN(Cc2ccccc2)c2cc(-c3cccc(Cl)c3)ccc2N1 [Example 28, 4-Benzyl-6-(3-chlorophenyl)-3,4-dihydroquinoxalin-2 (1H)-one]
The melting point of the first is higher: 238 to 240 °C for the first, 182 to 185 °C for the second.

Molecule `CC1Nc2cc(-c3ccc(Cl)cc3)ccc2NC1=O` (stereo not drawn) [Example 27, 6-(4-Chloro-phenyl)-3-methyl-3,4-dihydro-1H-quinoxalin-2-one] has a melting point of 228 to 230 °C.

Tested on: rat uterine decidualization
Experiment: Rat decidualization assay
Format: in vivo
Conditions: ovariectomized rats, p.o., with progesterone 5.6 mg/kg
Experimental: 2. Rat Decidualization Assay
b. Animals (RACUC protocol #5002)
The animals are treated once daily for seven days.
Uteri are removed and trimmed of fat.
S f. Analysis of Results:
Body weight: Mean total animal body weight (default-kg)
Decidual response: [(D-C)/C]×100%

For `CC#C[C@]1(O)CC[C@H]2[C@@H]3CCC4=CC(=O)CCC4=C3[C@@H](c3ccc(N(C)C)cc3)C[C@@]21C` [RU486], the “Estimated IC50, decrease in EC50 progesterone induced decidual response” value was 0.21 mg/kg and 0.14 mg/kg.
